According to patent EP0374249A1, “METHOD OF STERILIZING PLANT POLLEN” (VSESOJUZNY NAUCHNO-ISSLEDOVATELSKY INST. SELSKOKHOZYAISTV. …, priority 1988, dated 1989):

Key:
[1] = test system: Sonneblume Sorte Peredovik; experiment: Field test of pollen sterilisation, sunflower variety Peredovik; assay type: in vivo, Sonnenblume; conditions: period V, 0.5% emulsion; for Prozentsatz der Sterilität: 3 kg/ha (N-Karbamoylmaleaminsäure) or 0.1% emulsion, 1 kg/ha (N-(3-Dimethylaminopropyl)-maleaminsäure); for Ansetzen von Ächänen bei freier Bestäubung in %: 3 kg/ha or 0.1% emulsion, 1 kg/ha, free pollination
From the text: (§1) Die gametozide Aktivität der erfindungsgemässen Sterilisationsmittel war im Feldversuch in verschiedenen Bodenklimatischen Zonen mit Teilstücken von 10 m^2 Grösse in drei- bis viermaliger Wiederholung nachgewiesen. Jedes Sterilisationsmittel wurde mindestens 5 Jahre lang geprüft.
(§2) Die Entwicklung der Perioden der Organogenese wird zytologischüberwacht. Die Behandlung von Pflanzen mit dem Sterilisationsmittel erfolgt am Anfang der fünften Periode der Organogenese nach Kupermann.
(§3) Zur Kontrolle der chemischen Sterilisation des Sonnenblumenpollens werden für jede Verbindung 45 behandelte Pflanzen jeder Wiederholung benutzt, wobei 15 Pflanzen von denen zwecks Selbstbestäurun^g des Blütenkörbchens isoliert werden, 15 andere Pflanzen mit einem Pollengemisch, gesammelt von 20 bis 25 behandelten isolierten Körbchen, bestäubt werden und 15 Pflanzen für freie Bestäubeung gelassen werden, damit das Ansetzen von Ächänen mit dem Pollen der Vaterform kontrolliert werden kann.
(§4) Man beurteilt die Pollensterilität von Pflanzen der Sonnenblume nach der Pollenfertilität und -keimfähigkeit, nach den morphologischen Besonderheiten von Spermien und nach der Fähigkeit von Achänen zum Ansetzen bei der Bestäubung der behandelten isolierten Pflanzen mit dem Pollen der unbehandelten väterlichen Form. Die Lebensfähigkeit der Eizelle wird nach der Samenbildung von behandelten Pflanzen bei freier Bestäubung der väterlichen Form ermittelt.
(§5) Pflanzen der Sonneblume Sorte Peredovik und Linie BK-119 werden in der V. Periode der Organogenese (nach Kupermann) mit einer 0,5%igen wässrigen Emulsion der N-Karbamoylmaleaminsäure behandelt. Die Emulsion enthält 0,01 Masse% Dimethylsulfoxid und 0,1 Masse% Kalziumalkylbenzolsulfonat mit 12 bis 14 Kohlenstoffatomen. Der Verbrauch an Präparat beträgt 3 kg/ha. Die gleichen Pflanzen werden mit einer 0,1masseprozentigen wässrigen Emulsion der N-(3-Dimethylaminopropyl)-maleaminsäure behandelt. Im letzten Falle enthält die Emulsion 0,01 Masse% Dodezylsulfat und 0,1 Masse% Kalziumalkylbenolsulfonat mit 12 bis 14 Kohlensotffatomen. Der Verbrauch an Präparat beträgt 1 kg/ha. Als Kontrolle dienen Pflanzen, behandelt mit einem Verdünner.ohne Sterilisationsmittel. Die Prufergenisse sind in der Tabelle 14 dargestellt. […] Periode der Organogenese erhalten.

[2] = test system: Linie BK-119; experiment: Field test of pollen sterilisation, sunflower line BK-119; assay type: in vivo, Sonnenblume; conditions: period V, 0.5% emulsion; for Prozentsatz der Sterilität: 3 kg/ha (N-Karbamoylmaleaminsäure) or 0.1% emulsion, 1 kg/ha (N-(3-Dimethylaminopropyl)-maleaminsäure); for Ansetzen von Ächänen bei freier Bestäubung in %: 3 kg/ha or 0.1% emulsion, 1 kg/ha, free pollination
From the text: as §1, §2, §3, §4, §5

[3] = test system: Winterweizens Sorte Mir.onovskaya 808; experiment: Field test of pollen sterilisation (gametocidal activity), winter wheat Mironovskaya 808; assay type: in vivo, Winterweizen; conditions: 2% aqueous emulsion, 20 kg/ha
From the text: Als Emulgierungsmittel wird 0,1 Masse% Kalziumalkylbenzolsulfonat mit 12 bis 14 Kohlenstoffatomen hinzugefügt. Als Adjuvans fährt man in die Emulsion 0,01 Masse% Dimethylsulfoxid ein. Der Verbrauch an Präparat beträgt 20 kg/ha. Als Kontrolle dienen Pflanzen, behandelt mit einem Verdünner ohne Sterilisationsmittel.

[4] = test system: Winterweizens Sorte Bezostaya 1; experiment: Field test of pollen sterilisation, winter wheat Bezostaya 1; assay type: in vivo, Winterweizen; conditions: 2% aqueous emulsion, 16 kg/ha
From the text: Pflanzen des Winterweizens Sorte Bezostaya 1 werden in der V. Periode der Organogenese durch Zerstäubung einer 2%igen wässrigen Emulsion von N-(2-Dimethylaminoäthyl)-maleaminsäure, N-(3-Dimethylaminopropyl)-maleaminsäure, N-Äthylmaleaminsäure, N-(2-Hydroxyäthyl)-maleaminsäure, N-Karbamoylmaleaminsäure mit Hilfe deiner Rückspritze behandelt. Die Emulsion enthält 0,1 Masse% Kalziumalkylbenzolsulfonat mit 12 bis 14 Kohlenstoffatomen. Als Adjuvans führt man in die Emulsion 0,01 Masse% Tetrahydrofuran ein.
Der Verbrauch an Präparat beträgt 16 kg/ha. Als Kontrolle dienen Pflanzen, behandelt mit einem Verdünner ohne Sterilisationsmitteln.

[5] = test system: Sommerweizens Sorte Moskovskaya 35; experiment: Field test of pollen sterilisation, spring wheat Moskovskaya 35; assay type: in vivo, Sommerweizen; conditions: 1% aqueous emulsion, 10 kg/ha
From the text: Pflanzen des Sommerweizens Sorte Moskovskaya 35 werden in V. Periode der Organogenese (nach Kupermann) mit einer 1%igen wässrigen Emulsion von N-(2-Dimethyl-aminoäthyl)-maleaminsäure, N-(3-Dimethylaminopropyl)-maleaminsäure, N-Äthylmaleaminsäure, N-(2-Hydroxyäthyl) maleaminsäure bzw. N-Karbamoylmaleaminsäure behandelt. Die Emulsion enthält 0,5 Masse% Kalziumalkylbenzolsulfonat mit 12 bis 14 Kohlenstoffatomen als Emulgierungsmittel und 0,01 Masse% Dimethylformamid als Adjuvans. Der Verbrauch an Präparat beträgt 10 kg/ha. Als Kontrolle dienen Pflanzen, behandelt mit einem Verdünner ohne Sterilisationsmittel.

[6] = test system: Sommerweizens Sorte Botanicheskaya 4; experiment: Field test of pollen sterilisation, spring wheat Botanicheskaya 4; assay type: in vivo, Sommerweizen; conditions: 1% aqueous emulsion, 6 kg/ha
From the text: Pflanzen des Sommerweizens Sorte Botanicheskaya 4 werden in der V. Periode der Organogenese (nach Kupermann) mit einer 1%igen Wässrigen Emulsion von N-(2-Dimethyl-aminoäthyl)-maleaminsäure, N-(3-Dimethylaminopropyl)-maleaminsäure, N-Äthylmaleaminsäure, N-(2-Hydroxyäthyl)-maleaminsäure bzw. N-Karbamoylmaleaminsäure behandelt. Die Emulsion enthält 0,5 Masse% Kalziumalkylbenzolsulfonat mit 12 bis 14 Kohlenstoffatomen und 0,01 Masse% Dimethylsulfoxid als Adjuvans. Der Verbrauch an Präparat beträgt 6 kg/ha. Als Kontrolle dienen Pflanzen, behandelt mit einem Verdünner ohne Sterilisationsmittel.

[7] = test system: tetraploidem Roggen Sorte Belta; experiment: Field test of pollen sterilisation, tetraploid rye Belta; assay type: in vivo; conditions: 1% aqueous emulsion, 10 kg/ha
From the text: as §1, §2
(§6) Mit dem Ahrenschiebe verwirklicht man die Isolierung von Hauptähren und anderen Stockwerken in Pergamentbeuteln. Bei Weizen und Tritikale werden Einzelisolatoren verwendet. Bei Roggen schliesst man je Ähre 5 bis 7 verschiedene nebeneinander befindliche Pflanzen unter einen gemeinsamen Isolator ein. Bei Hirse wird jede Rispe getrennt isoliert. Der Sterilitätsprozentsatz (X) für Weizen, Roggen, Tritikale und Hirse wird nach folgender Formel [formula] ermittelt.
(§7) Die Kornzahl in nicht isolierten ähren von Kontrollpflanzen wird bedingt für 100% Ansetzen bei freier Bestäubung angenommen.
(§8) Um zuverlässige Angaben zu erhalten, verwendet man 20 bis 25 Isolatoren jeder Wiederholung für Weisen und Tritikale, 10 bis 15 Gruppenisolatoren jeder Wiederholung für Roggen und Hirse.
Pflanzen von tetraploidem Roggen Sorte Belta werden in der V. Periode der Organogenese (nach Kupermann) mit einer 1%igen wässrigen Emulsion von N-(2-Dimethylamino- .äthyl)maleaminsäure, N-(3-Dimethylaminopropyl)maleaminsäure, N-Äthylmaleaminsäure, N-(2-Hydroxyäthyl)maleaminsäure bzw. Karbamoylmaleaminsäure behandelt. Die Emulsion enthält 0,5 Masse% Kalziumalkylbenzolsulfonat mit 12 bis 14 Kohlenstoffatomen und 0,01 Masso% Tetrahydrofuran. Der Verbrauch an Präparat beträgt 10 kg/ha. Die Prüfergebnisse sind in der Tabelle 5 dargestellt. […] Periode der Organogenese erhalten.

[8] = test system: tetraploidem Roggen Sorte Ukrainskaya tetra; experiment: Field test of pollen sterilisation, tetraploid rye Ukrainskaya tetra; assay type: in vivo; conditions: 1% aqueous emulsion, 6 kg/ha
From the text: (§9) Jedes Sterilisationsmittel wurde mindestens 5 Jahre lang geprüft.
as §2, §6, §7, §8
Pflanzen von tetraploidem Roggen Sorte Ukrainskaya tetra werden in der V. Periode der Organogenese (nach Kupermann) mit einer 1%igen wässrigen Emulsion von N-(2-Dimethylaminoäthyl)maleaminsäure, N-(3-Dimethyl-aminopropu)maleaminsäure bzw. N-Karbamoylmaleaminsäure behandelt. Die Emulsion enthält 0,1 Masse% Kaliumalkylbenzolsulfonat mit 12 bis 14 Kohlenstoffatomen und 0,01 Masse% Dodezylsulfat. Der Verbrauch an Präparat beträgt 6 kg/ha. Als Kontrolle dienen Pflanzen, behandelt mit einem Verdünner ohne Sterilisationsmittel. Die Prüfergebnisse sind in der Tabelle 6 dargestellt.

[9] = test system: diploidem Roggen Sorte Voskhod 2; experiment: Field test of pollen sterilisation, diploid rye Voskhod 2; assay type: in vivo; conditions: 1% aqueous emulsion, 10 kg/ha
From the text: Die Emulsion enthält 0,1 Masse% Kalziumalkylbenzolsulfonat und 0,01 Masse% Dimethylformamid. Der Verbrauch an Präparat beträgt 10 kg/ha. Als Kontrolle dienen Pflanzen, behandelt mit einem Lösungsmittel ohne Sterilisationsmittel.

[10] = test system: diploidem Roggen Sorte Chulpan; experiment: Field test of pollen sterilisation, diploid rye Chulpan; assay type: in vivo; conditions: 1% aqueous emulsion, 8 kg/ha
From the text: (§10) Mit dem Ahrenschiebe verwirklicht man die Isolierung von Hauptähren und anderen Stockwerken in Pergamentbeuteln. […] Bei Roggen schliesst man je Ähre 5 bis 7 verschiedene nebeneinander befindliche Pflanzen unter einen gemeinsamen Isolator ein. […] Der Sterilitätsprozentsatz (X) für Weizen, Roggen, Tritikale und Hirse wird nach folgender Formel [formula] ermittelt.
Die Emulsion enthält 0,01 Masse% Tetranydrofuran und 0,1 Masse% Kalziumalkylbenzolsulfonat mit 12 bis 14 Kohlenstoffatomen. Der Verbrauch an Präparat beträgt 8 kg/ha. Als Kontrolle dienen Pflanzen, behandelt mit einem Verdünner ohne Sterilisationsmittel.

[11] = test system: diploidem Roggen Sorte Talovskaya 12; experiment: Field test of pollen sterilisation, diploid rye Talovskaya 12; assay type: in vivo; conditions: 1% aqueous emulsion, 6 kg/ha
From the text: as §10
Pflanzen von diploidem Roggen Sorte Talovskaya 12 werden in der V. Periode der Organogenese (nach Kupermann) mit einer 1%igen wässrigen Emulsion von N-(2-Di- methylaminoäthyl)-maleaminsäure, N-(3-Dimethylaminopropyl)-maleaminsäure, N-Äthylmaleaminsäure, N-(2-Hydroxyäthyl)maleaminsäure, N-Karbamoylmaleaminsäure behandelt. Die Emulsion enthält 0,01 Masse% Dodezylsulfat und 0,1 Masse% Kalziumalkylbenzolsulfonat mit 12 bis _14 Kohlenstoffatomen. Der Verbrauch an Präparat beträgt 6 kg/ha. Als Kontrolle dienen Pflanzen, behandelt mit einem Verdünner ohne Sterilisationsmittel.

[12] = test system: Tritikale Sorte Prag 109; experiment: Field test of pollen sterilisation, triticale Prag 109; assay type: in vivo; conditions: 2% aqueous emulsion, 12 kg/ha
From the text: as §9, §2, §6, §7, §8
V.Periode der Organogenese (nach Kupermann) mit einer 2%igen wässrigen Emulsion von N-(3-Dimethylaminopropyl) maleaminsäure, N-Karbamoylmaleaminsäure behandelt. Die Emulsion enthält 0,01 Masse% Tetrahydrofuran […] und 0,1 Masse% Kalziumalkylbenzolsulfonat mit 12 bis 14 Kohlensotffatomen. Der Verbrauch an Präparat beträgt 12 kg/ha. Als Kontrolle dienen Pflanzen, behandelt mit einem Verdünner ohne Sterilisationsmittel.

[13] = test system: Hirse Sorte Mironovskoe 94; experiment: Field test of pollen sterilisation, millet Mironovskoe 94; assay type: in vivo; conditions: 1% aqueous emulsion, 8 kg/ha
From the text: as §1, §2, §6, §7, §8
Pflanzen der Hirse Sorte Mironovskoe 94 werden in der V. Periode der Organogenese (nach Kupermann) mit einer 1%igen wässrigen Emulsion von N-(2-Dimethylaminoäthyl)maleaminsäure, N-(3-Dimethylaminopropyl)maleaminsäure, N-Äthylmaleaminsäure, N-(2-Hydroxyäthyl)maleaminsäure, N-Karbamoylmaleaminsäure behandelt. Die Emulsion enthält 0,01 Masse% Dimethylaulfoxid und 0,1 Masse% Kalziumalkylbenzolsulfonat mit 12 bis 14 Kohlenstoffatomen. Der Verbrauch an Präparat beträgt 8 kg/ha. Als Kontrolle dienen Pflanzen, behandelt mit einem Verdünner ohne Sterilisationsmittel. Die Prüfergebnisse sind in der Tabelle 12 dargestellt. […] Periode der Organogenese erhalten.

[14] = Toxicity test in animals (LD50); conditions: in vivo; animal test, per kg animal weight; species and route not given
From the text: Alle erfindungsgemässen N-substituierten Maleaminsäuren, welche als Sterilisationsmittel zur Verwendung kommen, waren auf die Toxizität im Tierversuch geprüft. Die Prüfergebnisse haben ergeben, dass die angegebenen Verbindungen von schwacher oder mittlerer Toxizität sind.

[15] = period V of organogenesis, free pollination
[16] = period V of organogenesis, isolated ears
[17] = period V, non-isolated control ears = 100%

For `NC(=O)NC(=O)/C=C\C(=O)O` [Beispiel 59, N-Karbamoylmaleaminsäure], the “Prozentsatz der Sterilität” value [1] was 100,0% and the “Ansetzen von Ächänen bei freier Bestäubung in %” value [1] was 81,7%.
With `CN(C)CCCNC(=O)/C=C\C(=O)O` [Beispiel 64, N-(3-Dimethylaminopropyl)-maleaminsäure] the “Prozentsatz der Sterilität” value [2] was 100,0% and the “Ansetzen von Ächänen bei freier Bestäubung in %” value [2] was 80,4%.
With `NC(=O)NC(=O)/C=C\C(=O)O` [Beispiel 61, N-Karbamoylmaleaminsäure] the “Prozentsatz der Sterilität” value [2] was 100,0% and the “Ansetzen von Ächänen bei freier Bestäubung in %” value [2] was 82,5%.
For `CN(C)CCCNC(=O)/C=C\C(=O)O` [Beispiel 60, N-(3-Dimethylaminopropyl)-maleaminsäure], the “Prozentsatz der Sterilität” value [1] was 100,0% and the “Ansetzen von Ächänen bei freier Bestäubung in %” value [1] was 84,9%.
With `CN(C)CCCNC(=O)/C=C\C(=O)O` [Beispiel 2, N-(3-Dimethylaminopropyl)-maleaminsäure] the “Prozentsatz der Sterilität” value ([3]; period V of organogenesis) was 99,8%, the “Anzahl von Körnern der Ähre bei freier Bestäubung” value [3, 15] was 41,5 and the “Anzahl von Körnern der Ähre im Isolator” value [3, 16] was 0,1. For the same compound, the “Prozentsatz des Ansetzens von Körnern bei freier Bestäubung” value [3, 17] was 97,4%, the “Prozentsatz der Sterilität” value ([4]; period V of organogenesis) was 100,0% and the “Anzahl von Körnern der Ähre bei freier Bestäubung” value [4, 15] was 40,2. The “Anzahl von Körnern der Ähre im Isolator” value [4, 16] was 0,0, the “Prozentsatz des Ansetzens von Körnern bei breier Bestäubung” value [4, 17] was 93,7% and the “Prozentsatz der Sterilität” value ([5]; period V of organogenesis) was 98,9%. The “Anzahl von Körnern der Ähre bei freier Bestäubung” value [5, 15] was 27,0, the “Anzahl von Körnern der Ähre im Isolator” value [5, 16] was 0,3 and the “Prozentsatz des Ansetzens von Körnern bei freier Bestäubung” value [5, 17] was 98,2%. The “Prozentsatz der Sterilität” value ([6]; period V of organogenesis) was 99,7%, the “Anzahl von Körnern der Ähre bei freier Bestäubung” value [6, 15] was 27,7 and the “Anzahl von Körnern der Ähre im Isolator” value [6, 16] was 0,1. For the same compound, the “Prozentsatz des Ansetzens von Körnern bei freier Bestäubung” value [6, 17] was 92,0%, the “Prozentsatz der Sterilität” value ([7]; period V of organogenesis) was 100,0% and the “Anzahl von Körnern der Ähre bei freier Bestäubung” value [7, 15] was 47,7. The “Anzahl von Körnern der Ähre im Isolator” value [7, 16] was 0,0, the “Prozentsatz des Ansetzens von Körnern bei freier Bestäubung” value [7, 17] was 87,0% and the “Prozentsatz der Sterilität” value ([8]; period V of organogenesis) was 100,0%. The “Anzahl von Körnern der Ähre bei freier Bestäubung” value [8, 15] was 42,6, the “Anzahl von Körnern der Ähre im Isolator” value [8, 16] was 0,0 and the “Prozentsatz des Ansetzens von Körnern bei freier Bestäubung” value [8, 17] was 95,1%. For the same compound, the “Prozentsatz der Sterilität” value ([9]; period V of organogenesis) was 100,0%, the “Anzahl von Körnern der Ähre bei freier Bestäubung” value [9, 15] was 48,0 and the “Anzahl von Körnern der Ähre im Isolator” value [9, 16] was 0,0. The “Prozentsatz des Ansetzens von Körnern bei freier Bestäubung” value [9, 17] was 87,0%, the “Prozentsatz der Sterilität” value ([10]; period V of organogenesis) was 100,0% and the “Anzahl von Körnern der Ähre bei freier Bestäubung” value [10, 15] was 51,6. The “Anzahl von Körnern der Ähre im Isolator” value [10, 16] was 0,0, the “Prozentsatz des Ansetzens von Körnern bei freier Bestäubung” value [10, 17] was 90,8% and the “Prozentsatz der Sterilität” value ([11]; period V of organogenesis) was 100,0%. For the same compound, the “Anzahl von Körnern der Ähre bei freier Bestäubung” value [11, 15] was 48,0, the “Anzahl von Körnern der Ähre im Isolator” value [11, 16] was 0,0 and the “Prozentsatz des Ansetzens von Körnern bei freier Bestäubung” value [11, 17] was 85,4%. For the same compound, the “Prozentsatz der Sterilität” value ([12]; period V of organogenesis) was 100,0%, the “Anzahl von Körnern der Ähre bei freier Bestäubung” value [12, 15] was 40,3 and the “Anzahl von Körnern der Ähre im Isolator” value [12, 16] was 0,0. The “Prozentsatz des Ansetzens von Körnern bei freier Bestäubung” value [12, 17] was 88,0%, the “Prozentsatz der Sterilität” value ([13]; period V of organogenesis) was 100,0% and the “Anzahl von Körnern der Rispe bei freier Bestäubung” value [13, 15] was 214,5. For the same compound, the “Anzahl von Körnern der Rispe im Isolator” value ([13]; period V of organogenesis, isolated panicles) was 0,0, the “Prozentsatz des Ansetzens von Körnern bei freier Bestäubung” value ([13]; period V, non-isolated control = 100%) was 94,4% and the LD50 [14] was > 10000 mg/kg.
